Measured values from patent US9029337B2, “Modulation of factor 7 expression” (Isis Pharmaceuticals, Inc., priority 2007, dated 2015).
Strand notation (5' to 3'): a small letter for the sugar, then the base; units joined by * are phosphorothioate-linked, units joined directly phosphodiester-linked; [ ] holds rarer units or linkages, { } end groups; capitals alone tell only the bases. e = 2'-O-(2-methoxyethyl) (MOE); [5mC] = 5-methylcytosine; d = 2'-deoxy (DNA)

Tests used:
BALB/c mice = experiment: Tail bleeding assay; format: in vivo, mouse; settings: mouse, in vivo
Protocol: (§1) Mice not receiving treatment with FeCl3 solution were evaluated in a tail bleeding chamber. Mice were placed into the bleeding chamber two days after the final treatment of ISIS 403102 or PBS. Mice were anesthetized in the chamber with isofluorane and a small piece of tail (approximately 4 mm from the tip) was cut with sterile scissors. The cut tail was immediately placed in a 15 mL Falcon tube filled with approximately 10 mL of 0.9% NaCl buffer solution warmed to 37° C. The blood was collected over the course of 40 minutes. The saline filled tubes were weighed both before and after bleeding.
Tail-bleeding was measured to observe whether treatment with ISIS 403102 or warfarin causes internal hemorrhage in mice. ISIS 403102 and warfarin (Coumadin®) were evaluated in the tail bleeding assay. Six groups of BALB/c mice were treated with 1.25 mg/kg, 2.5 mg/kg, 5 mg/kg, 10 mg/kg, 20 mg/kg, or 40 mg/kg of ISIS 403102, administered subcutaneously twice a week for 3 weeks. An additional 6 groups of BALB/c mice were treated with 0.5 mg/kg, 1 mg/kg, 2 mg/kg, 3 mg/kg, 4 mg/kg, and 5 mg/kg of warfarin, administered intraperioneally daily for 6 days. A separate control group of BALB/c mice was treated with PBS, administered subcutaneously twice a week for 3 weeks.
as §1, with “Two” for “Mice not receiving treatment with FeCl3 solution were evaluated in a tail bleeding chamber. Mice were placed into the bleeding chamber two”, “403102, warfarin,” for “403102”, “PBS, mice were placed in a tail bleeding chamber.” for “PBS.”
ISIS 403102 and Apixaban were evaluated in BALB/c mice. In a first group of BALB/c mice, 40 mg/kg of ISIS 403102 was administered subcutaneously twice a week for 3 weeks. An additional 3 groups of BALB/c mice were treated with 5 mg/kg and 10 mg/kg of Apixaban, administered in a single intraperitoneal dose, and 10 mg/kg of Apixaban administered as a single subcutaneous dose. A control group of BALB/c mice was treated with PBS, administered subcutaneously twice a week for 3 weeks.
as §1, with “Two” for “Mice not receiving treatment with FeCl3 solution were evaluated in a tail bleeding chamber. Mice were placed into the bleeding chamber two”, “PBS, mice were placed in a tail bleeding chamber. Mice from the groups treated with Apixaban were analyzed 30 minutes after the single dose.” for “PBS.”, “weighed” for “weighed both”

human Factor 7 mRNA [1] = experiment: Dose-dependent antisense inhibition of human Factor 7 in HepB3 cells, lipofectin; format: cell-based; settings: HepB3 cells, approx. 16 hours (Table 14)
How it was run: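 HepB3 cells (4,000/well) lipofectin-transfected with antisense oligonucleotide at 3.125 or 6.25 up to 100 nM for ~16 h. Factor 7 mRNA measured by real-time RT-PCR with primer probe set RTS 2927, adjusted to RIBOGREEN total RNA; expressed as percent inhibition versus untreated control cells.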

human Factor 7 mRNA [2] = experiment: Antisense inhibition of human Factor 7 mRNA in HepB3 cells, 50 nM antisense oligonucleotide, lipofectin; format: cell-based
How it was run: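 Seeding density was 4,000 cells per well. Following roughly 24 hours of oligonucleotide treatment, RNA was extracted and Factor 7 message quantified using the RTS 2927 primer probe set. Levels were corrected for RIBOGREEN® total RNA and expressed against untreated controls.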

human Factor 7 mRNA [3] = experiment: Dose-dependent antisense inhibition of human Factor 7 in HepB3 cells, electroporation; format: cell-based
How it was run: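 HepB3 cells, 20,000/well, electroporated with gapmers at 3.125–100 μM; about 16 h treatment. Factor 7 mRNA by qRT-PCR with primer probe set RTS 2927, normalized to RIBOGREEN total RNA; percent inhibition versus untreated cells.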

[4] = 3.125 μM, approx. 16 hours (Table 15, Example 7)
[5] = 3.125 μM, approx. 16 hours (Table 16, Example 8 confirmation)
[6] = 6.25 μM, approx. 16 hours (Table 15, Example 7)
[7] = 6.25 μM, approx. 16 hours (Table 16, Example 8 confirmation)
[8] = 12.5 μM, approx. 16 hours (Table 15, Example 7)
[9] = 12.5 μM, approx. 16 hours (Table 16, Example 8 confirmation)
[10] = 25 μM, approx. 16 hours (Table 15, Example 7)
[11] = 25 μM, approx. 16 hours (Table 16, Example 8 confirmation)
[12] = 50 μM, approx. 16 hours (Table 15, Example 7)
[13] = 50 μM, approx. 16 hours (Table 16, Example 8 confirmation)
[14] = 100 μM, approx. 16 hours (Table 15, Example 7)
[15] = 100 μM, approx. 16 hours (Table 16, Example 8 confirmation)

Row | Compound | percent inhibition of Factor 7 mRNA, relative to untreated control cells (human Factor 7 mRNA [1]; 3.125 nM) | percent inhibition of Factor 7 mRNA, relative to untreated control cells (human Factor 7 mRNA [1]; 12.5 nM) | percent inhibition of Factor 7 mRNA, relative to untreated control cells (human Factor 7 mRNA [1]; 25 nM) | percent inhibition of Factor 7 mRNA, relative to untreated control cells (human Factor 7 mRNA [1]; 50 nM) | percent inhibition of Factor 7 mRNA, relative to untreated control cells (human Factor 7 mRNA [1]; 100 nM) | percent inhibition of Factor 7 mRNA, relative to untreated control cells (human Factor 7 mRNA [1]) | percent inhibition of Factor 7 mRNA, relative to untreated control cells (human Factor 7 mRNA [3]; [4]) | percent inhibition of Factor 7 mRNA, relative to untreated control cells (human Factor 7 mRNA [3]; [5]) | percent inhibition of Factor 7 mRNA, relative to untreated control cells (human Factor 7 mRNA [3]; [6]) | percent inhibition of Factor 7 mRNA, relative to untreated control cells (human Factor 7 mRNA [3]; [7]) | percent inhibition of Factor 7 mRNA, relative to untreated control cells (human Factor 7 mRNA [3]; [8]) | percent inhibition of Factor 7 mRNA, relative to untreated control cells (human Factor 7 mRNA [3]; [9]) | percent inhibition of Factor 7 mRNA, relative to untreated control cells (human Factor 7 mRNA [3]; [10]) | percent inhibition of Factor 7 mRNA, relative to untreated control cells (human Factor 7 mRNA [3]; [11]) | percent inhibition of Factor 7 mRNA, relative to untreated control cells (human Factor 7 mRNA [3]; [12]) | percent inhibition of Factor 7 mRNA, relative to untreated control cells (human Factor 7 mRNA [3]; [13]) | percent inhibition of Factor 7 mRNA, relative to untreated control cells (human Factor 7 mRNA [3]; [14]) | percent inhibition of Factor 7 mRNA, relative to untreated control cells (human Factor 7 mRNA [3]; [15]) | further results
1 | 403102 (antisense CCATAGAACAGCTTCACAGG; chemistry not given here) [compound 403102] | – | – | – | – | – | – | – | – | – | – | – | – | – | – | – | – | – | – | Blood (g), tail bleeding (BALB/c mice; sc, 25 mg/kg): 0.06 g; Blood (g), tail bleeding (BALB/c mice; sc, 37.5 mg/kg): 0.06 g; Blood (g), tail bleeding (BALB/c mice; sc, 50 mg/kg): 0.10 g
2 | 422292 (antisense eG*eT*dT*d[5mC]*dT*dG*d[5mC]*dA*dG*dG*dA*dG*d[5mC]*dG*dG*e[5mC]*e[5mC]*eT*eA*eA) [compound 422292] | 13% | 44% | 63% | 81% | 83% | 21% | 36% | 31% | 25% | 40% | 47% | 68% | 59% | 75% | 75% | 82% | 86% | 83% | % Inhibition of human Factor 7 mRNA levels (human Factor 7 mRNA [2]; gapmers targeted to nucleobases 4868 to 4899 of SEQ ID NO: 1, Table 8): 75%
3 | COc1ccc(-n2nc(C(N)=O)c3c2C(=O)N(c2ccc(N4CCCCC4=O)cc2)CC3)cc1 [apixaban, Apixaban] | – | – | – | – | – | – | – | – | – | – | – | – | – | – | – | – | – | – | Blood (g), tail bleeding (BALB/c mice; BALB/c, ip, 5 mg/kg, 30 min): 0.22 g; Blood (g), tail bleeding (BALB/c mice; BALB/c, ip, 10 mg/kg, 30 min): 0.58 g; Blood (g), tail bleeding (BALB/c mice; BALB/c, sc, 10 mg/kg, 30 min): 0.04 g; bleeding compared to PBS treated mice (BALB/c mice; ip, 5 mg/kg): same amount of bleeding as PBS treated mice; bleeding compared to PBS treated mice (BALB/c mice; ip, 10 mg/kg): increased bleeding; bleeding compared to PBS treated mice (BALB/c mice; sc, 10 mg/kg): less bleeding than PBS mice
4 | 422152 (antisense eA*eT*eG*d[5mC]*dA*dT*dG*dG*dT*dG*dA*dT*dG*d[5mC]*dT*dT*d[5mC]*eT*eG*eA) [compound 422152] | 18% | 47% | 67% | 83% | 89% | 29% | 14% | – | 22% | – | 32% | – | 44% | – | 65% | – | 76% | – | % Inhibition (human Factor 7 mRNA [2]; Table 13 (microwalk), 50 nM, lipofectin, approximately 24 hours): 74%
5 | 422130 (antisense eG*e[5mC]*e[5mC]*eT*eG*dA*dG*dG*d[5mC]*d[5mC]*dA*dG*d[5mC]*dA*dG*eA*eT*e[5mC]*eA*e[5mC]) [compound 422130] | 4% | 34% | 59% | 77% | 85% | 15% | 28% | 14% | 29% | 24% | 59% | 61% | 61% | 68% | 73% | 82% | 86% | 88% | % Inhibition (human Factor 7 mRNA levels) (human Factor 7 mRNA [2]; oligonucleotides targeted to nucleobases 14707 to 14732 of SEQ ID NO: 1 (Table 11)): 79%
6 | 422252 (antisense e[5mC]*eG*d[5mC]*d[5mC]*dG*dG*d[5mC]*dT*d[5mC]*dT*dG*d[5mC]*dT*d[5mC]*dA*eT*e[5mC]*e[5mC]*e[5mC]*e[5mC]) [compound 422252] | 18% | 45% | 61% | 77% | 87% | 17% | 23% | – | 12% | – | 26% | – | 38% | – | 58% | – | 80% | – | % Inhibition (human Factor 7 mRNA levels) (human Factor 7 mRNA [2]; oligonucleotides targeted to nucleobases 13760 to 13789 of SEQ ID NO: 1 (Table 10)): 70%
